PMC10176470, “Engaging a Non-catalytic Cysteine Residue Drives Potent and Selective Inhibition of Caspase-6” (Journal of the American Chemical Society, 2023)

Legend:
Assay type in all cases: cell-based
[1] = target: proteins of HEK293T cells transiently overexpressing caspase-6 (Homo sapiens, UniProt P04843); conditions: exp_ref Probe; protein RPN1 (P04843); analysis C6
[2] = target: proteins of HEK293T cells transiently overexpressing caspase-6 (Homo sapiens, UniProt P10155); conditions: Probe; protein TROVE2 P10155
[3] = target: proteins of HEK293T cells transiently overexpressing caspase-6 (Homo sapiens, UniProt Q13428); conditions: exp_ref Probe; protein TCOF1 (Q13428); analysis C6
[4] = target: proteins of HEK293T cells transiently overexpressing caspase-6 (Homo sapiens, UniProt P12956); conditions: protein XRCC6 (P12956)
[5] = target: proteins of HEK293T cells transiently overexpressing caspase-6 (Homo sapiens, UniProt P60900); conditions: exp_ref Probe; protein PSMA6 (P60900); analysis C6
[6] = target: proteins of HEK293T cells transiently overexpressing caspase-6 (Homo sapiens, UniProt Q9Y265); conditions: Probe; protein RUVBL1 Q9Y265
[7] = target: proteins of HEK293T cells transiently overexpressing caspase-6 (Homo sapiens, UniProt P22626); conditions: exp_ref Probe; protein HNRNPA2B1 (P22626); analysis C6
[8] = target: proteins of HEK293T cells transiently overexpressing caspase-6 (Homo sapiens, UniProt Q9UL46); conditions: protein PSME2 (Q9UL46); exp_ref Probe; analysis C6
[9] = target: T1, proteins of HEK293T cells transiently overexpressing caspase-6 (Homo sapiens, UniProt P27824); conditions: protein CANX (P27824)
T1 sequence (P27824 21-592): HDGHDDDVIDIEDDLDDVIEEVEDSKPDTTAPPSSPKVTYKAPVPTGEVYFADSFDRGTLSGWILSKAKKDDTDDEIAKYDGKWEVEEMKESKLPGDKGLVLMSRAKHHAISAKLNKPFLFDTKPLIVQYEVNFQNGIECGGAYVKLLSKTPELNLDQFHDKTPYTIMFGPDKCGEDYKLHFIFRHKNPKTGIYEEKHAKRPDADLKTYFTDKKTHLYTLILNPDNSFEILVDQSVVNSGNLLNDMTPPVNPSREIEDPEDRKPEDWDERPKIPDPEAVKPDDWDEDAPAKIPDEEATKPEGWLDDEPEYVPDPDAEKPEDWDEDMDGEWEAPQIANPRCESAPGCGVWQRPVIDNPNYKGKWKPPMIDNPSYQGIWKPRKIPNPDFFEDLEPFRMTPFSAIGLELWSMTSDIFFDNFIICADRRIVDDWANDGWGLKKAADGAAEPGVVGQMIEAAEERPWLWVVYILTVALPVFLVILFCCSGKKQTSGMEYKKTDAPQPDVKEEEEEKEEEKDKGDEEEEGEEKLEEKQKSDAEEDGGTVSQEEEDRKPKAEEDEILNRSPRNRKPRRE

[10] = target: proteins of HEK293T cells transiently overexpressing caspase-6 (Homo sapiens, UniProt Q92598); conditions: exp_ref Probe; protein HSPH1 (Q92598); analysis C6
[11] = target: proteins of HEK293T cells transiently overexpressing caspase-6 (Homo sapiens, UniProt Q9Y617); conditions: Probe; protein PSAT1 Q9Y617
[12] = target: proteins of HEK293T cells transiently overexpressing caspase-6 (Homo sapiens, UniProt Q14980); conditions: exp_ref Probe; protein NUMA1 (Q14980); analysis C6
[13] = target: proteins of HEK293T cells transiently overexpressing caspase-6 (Homo sapiens, UniProt P33992); conditions: exp_ref Probe; protein MCM5 (P33992); analysis C6

proteins of HEK293T cells transiently overexpressing caspase-6 (Homo sapiens, UniProt P12956), sequence (P12956 whole entry): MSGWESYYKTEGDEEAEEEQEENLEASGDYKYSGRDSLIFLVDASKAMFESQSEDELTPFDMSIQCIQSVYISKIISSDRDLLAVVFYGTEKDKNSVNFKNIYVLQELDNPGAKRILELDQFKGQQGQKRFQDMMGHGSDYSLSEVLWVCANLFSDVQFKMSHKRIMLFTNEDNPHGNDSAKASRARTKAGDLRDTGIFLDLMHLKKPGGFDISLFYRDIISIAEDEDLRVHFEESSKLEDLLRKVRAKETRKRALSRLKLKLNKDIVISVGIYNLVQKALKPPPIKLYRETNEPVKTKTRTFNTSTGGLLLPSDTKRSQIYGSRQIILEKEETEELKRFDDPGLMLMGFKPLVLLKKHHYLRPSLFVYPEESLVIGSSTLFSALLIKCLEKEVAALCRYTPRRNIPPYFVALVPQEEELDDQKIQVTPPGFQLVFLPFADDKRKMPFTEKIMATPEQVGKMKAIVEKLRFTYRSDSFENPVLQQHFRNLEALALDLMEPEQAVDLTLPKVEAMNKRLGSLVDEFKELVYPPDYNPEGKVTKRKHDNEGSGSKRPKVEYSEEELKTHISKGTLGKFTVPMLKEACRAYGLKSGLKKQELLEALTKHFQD
proteins of HEK293T cells transiently overexpressing caspase-6 (Homo sapiens, UniProt P04843), sequence (P04843 24-607): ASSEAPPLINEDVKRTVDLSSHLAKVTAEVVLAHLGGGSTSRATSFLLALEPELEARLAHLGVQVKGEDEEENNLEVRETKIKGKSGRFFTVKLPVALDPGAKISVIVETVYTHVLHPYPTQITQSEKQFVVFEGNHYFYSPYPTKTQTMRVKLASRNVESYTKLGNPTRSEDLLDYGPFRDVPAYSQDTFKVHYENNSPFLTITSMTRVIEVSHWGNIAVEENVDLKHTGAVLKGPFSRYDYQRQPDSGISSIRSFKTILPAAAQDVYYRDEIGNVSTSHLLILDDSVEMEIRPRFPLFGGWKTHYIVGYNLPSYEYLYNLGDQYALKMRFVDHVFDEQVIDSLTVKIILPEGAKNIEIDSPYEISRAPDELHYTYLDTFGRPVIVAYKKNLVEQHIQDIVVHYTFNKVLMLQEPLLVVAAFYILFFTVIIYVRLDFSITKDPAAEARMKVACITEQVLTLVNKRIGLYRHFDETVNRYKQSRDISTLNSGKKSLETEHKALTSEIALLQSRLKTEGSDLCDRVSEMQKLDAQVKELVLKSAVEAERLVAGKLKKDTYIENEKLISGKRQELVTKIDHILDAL
proteins of HEK293T cells transiently overexpressing caspase-6 (Homo sapiens, UniProt Q9Y265), sequence (Q9Y265 whole entry): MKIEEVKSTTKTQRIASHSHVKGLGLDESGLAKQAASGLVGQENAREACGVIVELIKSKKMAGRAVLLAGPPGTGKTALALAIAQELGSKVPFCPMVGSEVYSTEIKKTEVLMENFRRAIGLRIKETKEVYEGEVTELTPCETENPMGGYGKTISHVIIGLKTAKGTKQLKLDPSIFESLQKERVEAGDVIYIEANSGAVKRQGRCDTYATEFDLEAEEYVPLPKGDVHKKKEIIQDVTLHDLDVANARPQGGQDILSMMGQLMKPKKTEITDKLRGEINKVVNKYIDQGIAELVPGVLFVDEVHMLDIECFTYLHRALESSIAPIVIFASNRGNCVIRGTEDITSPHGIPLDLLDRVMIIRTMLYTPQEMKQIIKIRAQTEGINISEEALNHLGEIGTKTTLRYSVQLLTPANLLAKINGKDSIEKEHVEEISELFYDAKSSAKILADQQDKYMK
proteins of HEK293T cells transiently overexpressing caspase-6 (Homo sapiens, UniProt P22626), sequence (P22626 whole entry): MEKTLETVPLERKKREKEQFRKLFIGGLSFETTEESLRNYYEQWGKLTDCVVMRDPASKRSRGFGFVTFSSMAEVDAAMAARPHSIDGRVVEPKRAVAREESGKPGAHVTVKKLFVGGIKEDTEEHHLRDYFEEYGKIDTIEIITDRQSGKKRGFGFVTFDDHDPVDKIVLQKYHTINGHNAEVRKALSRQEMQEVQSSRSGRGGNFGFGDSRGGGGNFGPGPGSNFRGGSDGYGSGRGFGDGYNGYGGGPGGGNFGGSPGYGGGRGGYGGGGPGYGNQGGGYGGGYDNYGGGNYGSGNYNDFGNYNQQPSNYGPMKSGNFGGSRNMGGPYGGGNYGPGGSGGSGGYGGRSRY
proteins of HEK293T cells transiently overexpressing caspase-6 (Homo sapiens, UniProt P10155), sequence (P10155 whole entry): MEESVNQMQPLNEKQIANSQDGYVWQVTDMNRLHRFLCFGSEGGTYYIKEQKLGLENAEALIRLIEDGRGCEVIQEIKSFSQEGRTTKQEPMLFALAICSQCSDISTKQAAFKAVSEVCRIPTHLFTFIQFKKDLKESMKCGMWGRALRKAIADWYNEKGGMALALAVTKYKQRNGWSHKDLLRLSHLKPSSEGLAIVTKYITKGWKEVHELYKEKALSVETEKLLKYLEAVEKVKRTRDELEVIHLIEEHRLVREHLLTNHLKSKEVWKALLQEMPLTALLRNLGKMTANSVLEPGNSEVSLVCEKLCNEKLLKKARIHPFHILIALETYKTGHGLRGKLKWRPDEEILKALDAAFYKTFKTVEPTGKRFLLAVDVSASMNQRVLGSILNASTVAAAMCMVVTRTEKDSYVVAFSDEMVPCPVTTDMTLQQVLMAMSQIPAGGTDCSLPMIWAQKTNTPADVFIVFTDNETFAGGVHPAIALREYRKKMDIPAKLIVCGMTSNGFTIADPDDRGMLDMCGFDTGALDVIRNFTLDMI
proteins of HEK293T cells transiently overexpressing caspase-6 (Homo sapiens, UniProt P60900), sequence (P60900 whole entry): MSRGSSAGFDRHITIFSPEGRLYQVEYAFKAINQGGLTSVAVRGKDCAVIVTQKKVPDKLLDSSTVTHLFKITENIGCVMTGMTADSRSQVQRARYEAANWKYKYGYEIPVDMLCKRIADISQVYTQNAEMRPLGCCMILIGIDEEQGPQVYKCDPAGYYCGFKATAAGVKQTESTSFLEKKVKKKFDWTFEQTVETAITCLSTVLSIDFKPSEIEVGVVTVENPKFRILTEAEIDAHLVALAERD
proteins of HEK293T cells transiently overexpressing caspase-6 (Homo sapiens, UniProt Q14980), sequence (Q14980 whole entry): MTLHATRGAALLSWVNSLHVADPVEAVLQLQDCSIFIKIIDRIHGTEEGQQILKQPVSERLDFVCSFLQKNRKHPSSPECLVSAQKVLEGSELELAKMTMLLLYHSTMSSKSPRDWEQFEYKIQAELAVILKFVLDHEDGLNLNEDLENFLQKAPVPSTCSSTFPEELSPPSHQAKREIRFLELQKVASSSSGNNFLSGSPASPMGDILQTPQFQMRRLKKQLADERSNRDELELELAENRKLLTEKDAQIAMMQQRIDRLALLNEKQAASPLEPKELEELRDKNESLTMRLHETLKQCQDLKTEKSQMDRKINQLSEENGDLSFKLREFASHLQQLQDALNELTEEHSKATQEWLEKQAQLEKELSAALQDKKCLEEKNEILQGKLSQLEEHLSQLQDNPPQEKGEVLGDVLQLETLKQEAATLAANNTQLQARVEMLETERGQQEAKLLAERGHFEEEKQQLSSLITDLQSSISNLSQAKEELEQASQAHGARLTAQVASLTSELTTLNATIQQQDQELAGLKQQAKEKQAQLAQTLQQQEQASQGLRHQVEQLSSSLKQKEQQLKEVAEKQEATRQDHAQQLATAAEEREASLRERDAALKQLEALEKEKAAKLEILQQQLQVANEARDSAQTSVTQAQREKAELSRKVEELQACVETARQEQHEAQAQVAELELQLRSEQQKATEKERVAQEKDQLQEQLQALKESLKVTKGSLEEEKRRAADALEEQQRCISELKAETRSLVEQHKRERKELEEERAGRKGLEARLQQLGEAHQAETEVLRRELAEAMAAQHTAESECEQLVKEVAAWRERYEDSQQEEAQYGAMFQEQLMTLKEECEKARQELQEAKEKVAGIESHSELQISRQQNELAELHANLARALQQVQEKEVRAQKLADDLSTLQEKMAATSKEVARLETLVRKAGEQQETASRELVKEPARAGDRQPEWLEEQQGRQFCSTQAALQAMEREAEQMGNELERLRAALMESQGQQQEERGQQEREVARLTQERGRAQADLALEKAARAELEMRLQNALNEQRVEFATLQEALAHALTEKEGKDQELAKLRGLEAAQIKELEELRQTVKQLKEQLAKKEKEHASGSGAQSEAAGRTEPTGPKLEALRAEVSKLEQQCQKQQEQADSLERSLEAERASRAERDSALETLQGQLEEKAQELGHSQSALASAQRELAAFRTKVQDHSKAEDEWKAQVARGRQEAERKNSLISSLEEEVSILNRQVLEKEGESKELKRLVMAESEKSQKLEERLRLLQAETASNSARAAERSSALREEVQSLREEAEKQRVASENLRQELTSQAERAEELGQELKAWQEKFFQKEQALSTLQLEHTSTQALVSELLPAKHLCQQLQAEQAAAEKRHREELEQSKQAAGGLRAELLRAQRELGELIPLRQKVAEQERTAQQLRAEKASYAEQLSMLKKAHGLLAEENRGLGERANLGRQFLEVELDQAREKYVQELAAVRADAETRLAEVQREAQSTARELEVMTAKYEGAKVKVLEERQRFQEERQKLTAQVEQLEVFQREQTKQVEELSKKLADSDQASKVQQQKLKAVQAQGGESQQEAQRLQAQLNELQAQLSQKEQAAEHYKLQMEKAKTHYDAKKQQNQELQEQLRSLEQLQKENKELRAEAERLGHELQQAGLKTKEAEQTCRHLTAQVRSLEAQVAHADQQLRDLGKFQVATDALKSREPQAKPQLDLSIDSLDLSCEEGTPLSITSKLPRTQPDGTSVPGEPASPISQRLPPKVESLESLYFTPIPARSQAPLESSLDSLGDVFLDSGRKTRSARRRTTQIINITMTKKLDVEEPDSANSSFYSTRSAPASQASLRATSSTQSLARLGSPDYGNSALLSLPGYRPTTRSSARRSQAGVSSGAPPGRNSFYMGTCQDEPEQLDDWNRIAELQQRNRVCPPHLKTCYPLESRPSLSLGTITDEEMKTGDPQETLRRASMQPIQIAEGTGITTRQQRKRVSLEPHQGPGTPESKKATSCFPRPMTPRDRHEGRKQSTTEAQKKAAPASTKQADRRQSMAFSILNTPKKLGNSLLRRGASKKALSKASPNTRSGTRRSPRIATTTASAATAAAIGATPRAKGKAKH

**Q.** With C#CCOc1ccc([C@@H]2C[C@@H](C(=O)Nc3ccc(OC(F)(F)F)cc3)CN(S(=O)(=O)C=C)C2)cc1 (relative stereo) [13-t] as the compound, how does the enrich.exp.med [1] read?
**A.** The enrich.exp.med was 1.117.

**Q.** And the enrich.exp.med [2]?
**A.** Its enrich.exp.med is -1.006.

**Q.** What about the enrich.exp.med [3] of the same compound?
**A.** Its enrich.exp.med is 0.9444.

**Q.** And the enrich.exp.med ([4]; exp_ref Probe, analysis C6)?
**A.** Its enrich.exp.med is 1.036.

**Q.** What about the enrich.exp.med.lin [4] of the same compound?
**A.** Its enrich.exp.med.lin is 2.05.

**Q.** What about the enrich.exp.med.log2 [4] of the same compound?
**A.** The enrich.exp.med.log2 was 1.036.

**Q.** What about the enrich.exp.med [5] of the same compound?
**A.** Its enrich.exp.med is -0.241.

**Q.** And the enrich.exp.med [6]?
**A.** Its enrich.exp.med is -0.45.

**Q.** And the enrich.exp.med [7]?
**A.** The enrich.exp.med was -0.1215.

**Q.** What about the enrich.exp.med [8] of the same compound?
**A.** Its enrich.exp.med is 1.487.

**Q.** What about the enrich.exp.med ([9]; exp_ref Probe, analysis C6) of the same compound?
**A.** Its enrich.exp.med is 0.4691.

**Q.** What about the enrich.exp.med.lin [9] of the same compound?
**A.** Its enrich.exp.med.lin is 1.384.

**Q.** What about the enrich.exp.med.log2 [9] of the same compound?
**A.** The enrich.exp.med.log2 was 0.4691.

**Q.** What about the enrich.exp.med [10] of the same compound?
**A.** The enrich.exp.med was 0.7489.

**Q.** What about the enrich.exp.med [11] of the same compound?
**A.** The enrich.exp.med was -1.015.

**Q.** What about the enrich.exp.med [12] of the same compound?
**A.** Its enrich.exp.med is -0.2955.

**Q.** And the enrich.exp.med [13]?
**A.** Its enrich.exp.med is 1.028.
